Measured values reported in article PMC6662706, “Short amylin receptor antagonist peptides improve memory deficits in Alzheimer’s disease mouse model” (Scientific Reports, 2019).
No end group written: not given here.

Legend:
AMY3 receptor = molecular target: T1, AMY3 receptor (Homo sapiens, UniProt O60896+P30988); assay: Block of hAmylin-evoked cAMP generation in HEK-AMY3 cells; assay type: cell-based; conditions: peptide 30 min then hAmylin 1 pM–10 µM 30 min, peptides 10 µM (Fig. 1E legend), 1 µM (supplement method)
T1 construct: expressed in transfected cells
T1 sequence (P30988 25-474): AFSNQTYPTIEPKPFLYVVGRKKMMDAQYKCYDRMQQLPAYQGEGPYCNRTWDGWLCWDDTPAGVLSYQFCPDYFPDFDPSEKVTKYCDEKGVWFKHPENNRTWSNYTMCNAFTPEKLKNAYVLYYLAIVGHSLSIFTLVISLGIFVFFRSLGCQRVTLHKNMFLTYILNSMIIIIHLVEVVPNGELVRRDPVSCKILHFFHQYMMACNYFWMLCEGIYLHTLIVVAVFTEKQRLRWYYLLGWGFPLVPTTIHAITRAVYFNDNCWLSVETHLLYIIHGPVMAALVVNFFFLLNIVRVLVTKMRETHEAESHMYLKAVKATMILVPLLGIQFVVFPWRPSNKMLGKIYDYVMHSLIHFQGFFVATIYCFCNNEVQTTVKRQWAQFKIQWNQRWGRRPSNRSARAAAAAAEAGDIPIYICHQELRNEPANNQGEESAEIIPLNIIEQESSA
T1 sequence (O60896 24-148): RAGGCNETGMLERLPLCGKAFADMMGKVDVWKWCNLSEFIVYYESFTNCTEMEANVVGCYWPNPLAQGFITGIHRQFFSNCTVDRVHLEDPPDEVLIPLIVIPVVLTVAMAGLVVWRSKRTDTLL
Text: Human amylin is a potent agonist at amylin receptor stimulating cAMP production in cells. In the first in vitro bioassay, we examined ability of R5 and R14 to block the hAmylin-evoked cAMP generation in HEK-AMY3 cells. R11 peptide served as a negative control. […] In a second in vitro assay, we examined whether peptides R5, and R14 could protect human fetal neurons (HFNs) and N2a (mouse neuroblastoma cell line) from Αβ1–42 induced cytotoxicity.
A shorter peptide library was derived from AC253 peptide sequence comprising 12–14 amino acid peptides. […] To determine the activity of these shorter peptides to block AMY3 receptor signaling, cellular cAMP levels (measured using a parameter cyclic AMP assay kit, R&D Systems) and phosphorylation ERK1/2 (Western blot) were measured. We assessed neuroprotective properties of the peptide fragments against Aβ cytotoxicity in vitro using the MTT assay in N2a cell line and human fetal neurons (HFNs), which were prepared from 12- to 15-gestational week fetuses with approval of the Human Ethics Research Board at the University of Alberta as previously reported[17],[19].
For cAMP measurements, HEK-AMY3 cells were plated on 24-well plates overnight. […] Cellular cAMP levels were measured using a parameter cyclic AMP assay kit (R&D Systems) according to the manufacturer’s instructions. […]

[1] = In vitro proteolytic stability in human serum; assay type: in vitro ADME; conditions: 37°C, intact peptide at different time points estimated by RP-HPLC
Description: Subsequently, we investigated the proteolytic stability of R5, and R14 compared to AC253. […] By assessing the main degradation fragments for both peptides using MALDI-TOF, we found both peptides to be cleaved at the basic arginine amino acids.
Supplementary Figure S2: The comparison of bio-distribution for the fragments and their parent peptide. (A) Ex vivo fluorescence showing bio-distribution images for Cy5.5-R5, R14, AC253 in different organs at after a 2 h of a single ip injection of the peptides (0.1 mmol in 200µl saline). (B) Quantification of peptides fluorescence in each organ (n=3). (C) In vitro stability of R5, R14, and AC253 peptides in human serum compared with AC253 at 37°C. The amount of intact peptide in human serum at different time points was estimated using RP-HPLC.

Substance: LGRLSQELHRLQTYPRTNTGSNTY-NH2 (C-terminus assumed) [AC253, reference compound]
- block of hAmylin-evoked cAMP increases (AMY3 receptor): inhibited

Substance: SQELHRLQTYPR-NH2 [R5]
- block of hAmylin-evoked cAMP increases (AMY3 receptor): blocked the cAMP increases in a dose-dependent manner
- half-life [1]: 1 h
